Measurements from publication PMC12028158, “Synthesis and In Vitro Evaluation of the Anticancer Effect of Novel Phosphonium Vindoline Derivatives” (International Journal of Molecular Sciences, 2025).
Read-outs that look alike come from different tables or passages of the source.

Experiments:
Assay type in all cases: cell-based
SNB-75 = experiment: NCI60 one-dose screen; details: Homo sapiens; SNB-75, 10 μM, one-dose; read-out: Growth percent
HOP-92 = experiment: NCI60 one-dose screen; details: Homo sapiens; HOP-92, 10 μM, one-dose; read-out: Growth percent
MOLT-4 [1] = experiment: NCI60 five-dose screen; details: Homo sapiens, MOLT-4, Leukemia, read-out: GI50
OVCAR-3 = experiment: NCI60 one-dose screen; details: Homo sapiens; OVCAR-3, 10 μM, one-dose; read-out: Growth percent
OVCAR-4 = experiment: NCI60 one-dose screen; details: Homo sapiens; OVCAR-4, 10 μM, one-dose; read-out: Growth percent
K-562 = experiment: NCI60 five-dose screen; details: Homo sapiens, K562, K-562, Leukemia, read-out: GI50
UACC-257 = experiment: NCI60 one-dose screen; details: Homo sapiens; UACC-257, 10 μM, one-dose; read-out: Growth percent
NCI/ADR-RES = experiment: NCI60 five-dose screen; details: Homo sapiens, Ovarian Cancer, read-out: GI50
786-0 [2] = experiment: NCI60 one-dose screen; details: Homo sapiens; 786-0, 10 μM, one-dose; read-out: Growth percent
OVCAR-5 = experiment: NCI60 five-dose screen; details: Homo sapiens, OVCAR-5, Ovarian Cancer, read-out: GI50
SF-539 = experiment: NCI60 five-dose screen; details: Homo sapiens, SF-539, CNS Cancer, read-out: GI50
CAKI-1 = experiment: NCI60 one-dose screen; details: Homo sapiens; CAKI-1, 10 μM, one-dose; read-out: Growth percent
HCT-15 = experiment: NCI60 one-dose screen; details: Homo sapiens; HCT-15, 10 μM, one-dose; read-out: Growth percent
SW-620 = experiment: NCI60 one-dose screen; details: Homo sapiens; SW-620, 10 μM, one-dose; read-out: Growth percent
HCC-2998 = experiment: NCI60 one-dose screen; details: Homo sapiens; HCC-2998, 10 μM, one-dose; read-out: Growth percent
786-0 [3] = experiment: NCI60 five-dose screen; details: Homo sapiens, 786-0, Renal Cancer, read-out: GI50
PC-3 [4] = experiment: NCI60 one-dose screen; details: Homo sapiens; PC-3, 10 μM, one-dose; read-out: Growth percent
LOX IMVI = experiment: NCI60 five-dose screen; details: Homo sapiens, Melanoma, read-out: GI50
RPMI-8226 = experiment: NCI60 one-dose screen; details: Homo sapiens; RPMI-8226, 10 μM, one-dose; read-out: Growth percent
SF-295 = experiment: NCI60 one-dose screen; details: Homo sapiens; SF-295, 10 μM, one-dose; read-out: Growth percent
HT29 = experiment: NCI60 five-dose screen; details: Homo sapiens, HT-29, HT29, Colon Cancer, read-out: GI50
BT-549 [5] = experiment: NCI60 five-dose screen; details: Homo sapiens, BT-549, Breast Cancer, read-out: GI50
BT-549 [6] = experiment: NCI60 one-dose screen; details: Homo sapiens; BT-549, 10 μM, one-dose; read-out: Growth percent
A498 = experiment: NCI60 one-dose screen; details: Homo sapiens; A498, 10 μM, one-dose; read-out: Growth percent
KM12 = experiment: NCI60 one-dose screen; details: Homo sapiens; KM12, 10 μM, one-dose; read-out: Growth percent
Colon Cancer panel = experiment: NCI60 five-dose screen, panel mean; details: Homo sapiens, mean over Colon Cancer panel
PC-3 [7] = experiment: NCI60 five-dose screen; details: Homo sapiens, PC-3, Prostate Cancer, read-out: GI50
NCI-H322M = experiment: NCI60 five-dose screen; details: Homo sapiens, Non-small Cell Lung Cancer, read-out: GI50
Melanoma panel = experiment: NCI60 five-dose screen, panel mean; details: Homo sapiens, mean over Melanoma panel
[8] = test system: Non-small Cell Lung Cancer panel; experiment: NCI60 five-dose screen, panel mean; details: Homo sapiens, mean over Non-small Cell Lung Cancer panel
NCI-H522 = experiment: NCI60 one-dose screen; details: Homo sapiens; NCI-H522, 10 μM, one-dose; read-out: Growth percent
OVCAR-8 [9] = experiment: NCI60 one-dose screen; details: Homo sapiens; OVCAR-8, 10 μM, one-dose; read-out: Growth percent
SK-MEL-28 = experiment: NCI60 one-dose screen; details: Homo sapiens; SK-MEL-28, 10 μM, one-dose; read-out: Growth percent
RXF 393 = experiment: NCI60 one-dose screen; details: Homo sapiens; RXF 393, 10 μM, one-dose; read-out: Growth percent
MDA-MB-231/ATCC = experiment: NCI60 one-dose screen; details: Homo sapiens; MDA-MB-231/ATCC, 10 μM, one-dose; read-out: Growth percent
MOLT-4 [10] = experiment: NCI60 one-dose screen; details: Homo sapiens; MOLT-4, 10 μM, one-dose; read-out: Growth percent
Renal Cancer panel = experiment: NCI60 five-dose screen, panel mean; details: Homo sapiens, mean over Renal Cancer panel
M14 = experiment: NCI60 five-dose screen; details: Homo sapiens, M14, Melanoma, read-out: GI50
SR = experiment: NCI60 one-dose screen; details: Homo sapiens, 10 μM, one-dose, read-out: Growth percent
OVCAR-8 [11] = experiment: NCI60 five-dose screen; details: Homo sapiens, OVCAR-8, Ovarian Cancer, read-out: GI50
TK-10 = experiment: NCI60 one-dose screen; details: Homo sapiens; TK-10, 10 μM, one-dose; read-out: Growth percent
SNB-19 = experiment: NCI60 five-dose screen; details: Homo sapiens, SNB-19, SNB-19, CNS Cancer, read-out: GI50
MDA-MB-468 = experiment: NCI60 one-dose screen; details: Homo sapiens; MDA-MB-468, 10 μM, one-dose; read-out: Growth percent
SK-OV-3 = experiment: NCI60 one-dose screen; details: Homo sapiens; SK-OV-3, 10 μM, one-dose; read-out: Growth percent
T-47D = experiment: NCI60 one-dose screen; details: Homo sapiens, T47D; T-47D, 10 μM, one-dose; read-out: Growth percent

Compound `CC[C@]12C=CCN3CC[C@@]4(c5ccc(OC)cc5N(C)[C@H]4[C@@](O)(C(=O)OC)[C@@H]1OC(=O)CCCC[P+](c1ccc(F)cc1)(c1ccc(F)cc1)c1ccc(F)cc1)[C@@H]32` [10c] has an activity at 10 µM (SNB-75) of -5.3%, an activity at 10 µM (HOP-92) of -12.2% and a GI50 (MOLT-4 [1]) of 14.7 µM. The activity at 10 µM (OVCAR-3) was 12.6%, the activity at 10 µM (OVCAR-4) was 33.1% and the GI50 (K-562) was 11.3 µM. The activity at 10 µM (UACC-257) was -50.7%, the GI50 (NCI/ADR-RES) was over 100 µM and the activity at 10 µM (786-0 [2]) was 87%. For the same compound, the GI50 (OVCAR-5) was 29.1 µM, the GI50 (SF-539) was 21.9 µM and the activity at 10 µM (CAKI-1) was 73.2%. The activity at 10 µM (HCT-15) was 102%, the activity at 10 µM (SW-620) was 36.9% and the activity at 10 µM (HCC-2998) was 19.4%. It also gave a GI50 (786-0 [3]) of 34.1 µM, an activity at 10 µM (PC-3 [4]) of 15.7% and a GI50 (LOX IMVI) of 16.8 µM. It also gave an activity at 10 µM (RPMI-8226) of 4.14%, an activity at 10 µM (SF-295) of 78.5% and a GI50 (HT29) of 15.4 µM. For the same compound, the GI50 (BT-549 [5]) was 12.9 µM, the activity at 10 µM (BT-549 [6]) was -23.5% and the activity at 10 µM (A498) was 99.2%. The activity at 10 µM (KM12) was 16%, the GI50 (Colon Cancer panel; read-out: GI50 Mean) was 26.9 µM and the GI50 (PC-3 [7]) was 16.4 µM. It also gave a GI50 (NCI-H322M) of 50 µM, a GI50 (Melanoma panel; read-out: GI50 Mean) of 12.5 µM and a GI50 ([8]; read-out: GI50 Mean) of 24.3 µM. For the same compound, the activity at 10 µM (NCI-H522) was -11.6%, the activity at 10 µM (OVCAR-8 [9]) was 20% and the activity at 10 µM (SK-MEL-28) was -54.9%. The activity at 10 µM (RXF 393) was -9.93%, the activity at 10 µM (MDA-MB-231/ATCC) was 2.85% and the activity at 10 µM (MOLT-4 [10]) was 29.1%. It also gave a GI50 (Renal Cancer panel; read-out: GI50 Mean) of 56.7 µM, a GI50 (M14) of 14.7 µM and an activity at 10 µM (SR) of 28.8%. The GI50 (OVCAR-8 [11]) was 29.4 µM, the activity at 10 µM (TK-10) was 70.2% and the GI50 (SNB-19) was 13 µM. It also gave an activity at 10 µM (MDA-MB-468) of -74.6%, an activity at 10 µM (SK-OV-3) of 41.4% and an activity at 10 µM (T-47D) of 12.8%.

Compound `CC[C@]12C=CCN3CC[C@@]4(c5ccc(OC)cc5N(C)[C@H]4[C@@](O)(C(=O)OC)[C@@H]1OC(=O)CCC[P+](c1ccc(OC)cc1)(c1ccc(OC)cc1)c1ccc(OC)cc1)[C@@H]32` [9b] has an activity at 10 µM (SNB-75) of -34%, an activity at 10 µM (HOP-92) of -82.9% and a GI50 (MOLT-4 [1]; five-dose) of 0.933 µM. The activity at 10 µM (OVCAR-3) was -73.6%, the activity at 10 µM (OVCAR-4) was -75.3% and the GI50 (K-562; five-dose) was 0.556 µM. For the same compound, the activity at 10 µM (UACC-257) was -93.5%, the GI50 (NCI/ADR-RES; five-dose) was 18.1 µM and the activity at 10 µM (786-0 [2]) was -89.5%. It also gave a GI50 (OVCAR-5; five-dose) of 1.77 µM, a GI50 (SF-539; five-dose) of 1.23 µM and an activity at 10 µM (CAKI-1) of -93.3%. The activity at 10 µM (HCT-15) was -86.3%, the activity at 10 µM (SW-620) was -82.4% and the activity at 10 µM (HCC-2998) was -89.7%. The GI50 (786-0 [3]; five-dose) was 1.93 µM, the activity at 10 µM (PC-3 [4]) was -78.8% and the GI50 (LOX IMVI; five-dose) was 0.614 µM. For the same compound, the activity at 10 µM (RPMI-8226) was -45.5%, the activity at 10 µM (SF-295) was -93.7% and the GI50 (HT29; five-dose) was 0.371 µM. The GI50 (BT-549 [5]; five-dose) was 1.05 µM, the activity at 10 µM (BT-549 [6]) was -96.6% and the activity at 10 µM (A498) was -83.2%. The activity at 10 µM (KM12) was -65.3%, the GI50 (Colon Cancer panel; read-out: Mean GI50) was 0.98 µM and the GI50 (PC-3 [7]; five-dose) was 0.47 µM. For the same compound, the GI50 (NCI-H322M; five-dose) was 2.86 µM, the GI50 (Melanoma panel; read-out: Mean GI50) was 0.76 µM and the GI50 ([8]; read-out: Mean GI50) was 1.09 µM. It also gave an activity at 10 µM (NCI-H522) of -89.4%, an activity at 10 µM (OVCAR-8 [9]) of -86.2% and an activity at 10 µM (SK-MEL-28) of -96.3%. The activity at 10 µM (RXF 393) was -92.6%, the activity at 10 µM (MDA-MB-231/ATCC) was -97% and the activity at 10 µM (MOLT-4 [10]) was -36.8%. The GI50 (Renal Cancer panel; read-out: Mean GI50) was 3.01 µM, the GI50 (M14; five-dose) was 1.12 µM and the activity at 10 µM (SR) was 15%. For the same compound, the GI50 (OVCAR-8 [11]; five-dose) was 1.41 µM, the activity at 10 µM (TK-10) was -90.7% and the GI50 (SNB-19; five-dose) was 0.391 µM. It also gave an activity at 10 µM (MDA-MB-468) of -92.1%, an activity at 10 µM (SK-OV-3) of -85.1% and an activity at 10 µM (T-47D) of -61.4%.
